1 compound from BindingDB's records for PubMed 28813519 (Erasmus University Medical Center) can be followed below.

The term IC50 denotes the concentration needed to halve the response being measured.

Assay [1] in a line: Inhibition of BRD4 in mouse MPNST cells assessed as reduction in cell viability incubated for 72 hrs by SRB assay. Background: Sulforhodamine B stains cellular protein and so reports cell mass.
A short description of assay [2]: Inhibition of BRD4 in mouse primary skin-derived precursors (Nf1-/-, P53-/-) assessed as reduction in cell viability incubated for 72 hrs by SRB assay.

Consider `Cc1sc2c(c1C)C(c1ccc(Cl)cc1)=N[C@@H](CC(=O)OC(C)(C)C)c1nnc(C)n1-2`, for which the IC50 in assay [1] and in assay [2] was under 400 nM in each case.
